Experimental data: patent publication US5646164A, “α-methylene-γ-butyrolactones: new inhibitors of platelet aggregation” (National Science Council, priority 1995, dated 1997)
Converted amounts (≈) assume the structure as drawn.

Experiments:
Assay type in all cases: cell-based
[1] = system: platelet aggregation induced by collagen (Col) in washed rabbit platelets; assay: Inhibition of collagen-induced aggregation of washed rabbit platelets (turbidimetry, Lumi-aggregometer); conditions: Oryctolagus cuniculus, Col 10 μg/ml; for activity at 100 µg/mL: 0.05 h, compound 100 μg/ml, preincubated at 37° for 3 min, mean ± SEM (n)
Protocol: (§1) The pharmacological activity of these compounds were determined according to G.V.R. Born by turbidimetry (J. Physiol., 1963, 168, 178). Based on the method, samples were suspended in rabbit platelets which were washed with platelet-rich plasma, the aggregation was then counted by the Lumi-aggregometer (Model 1020, Paytoon, Canada). Formula (I-III) at the concentration of 100 μg/ml are found to inhibit the platelet aggregation perfectly which was induced by arachidonic acid (AA), collagen, ADP, and PAF. Since the structures of these compounds are different from those of known antiplatelet agents, the present invention have the potential for further development.
2. Collagen (type I: bovine Achilles tendon), from the Sigma Chemical Co., was homogenized in 25 mM acetic acid and stored (1 mg/mL) at -70° C.
(§2) Platelet suspension was prepared from EDTA-anticoagulated Platelet-rich plasma according to washing procedures described previously (Teng, C. M. et. al., Thromb Haemost 59, 304, 1991). Platelets were counted by Hemalaser 2 (Sebia, France) and adjusted to a concentration of 4.5×10^8 platelets/mL. Platelet pellets were finally suspended in Tyrode's buffer (pH 7.4) of the following composition: NaCl (136.8 mM), KCl (2.8 mM), NaHCO3 (11.9 mM), MgCl2 (2.1 mM), NaH2 PO4 (0.33 mM), CaCl2 (1 mM), glucose (11.2 mM) containing 0.35% bovine serum albumin.
(§3) Aggregation was measured by the turbidimetry method as described by O'Brien (J Clin Pathol 15, 452, 1962). ATP released from platelets was detected by the bioluminescence method of DeLuca and McElory (Methods Enzymol 57, 3, 1978). Both aggregation and ATP release were measured simultaneously in a Lumi-aggregometer (model 1020B, Payton, Canada) connected to two dt/al-channel recorders. Platelet preparations were stirred at 900 rpm. When DMSO was used as solvent, its final concentration was fixed at 0.5% (v/v) to eliminate the effect of the solvent. For the calculation of percentage aggregation, the absorbance of platelet suspension was designated as 0% aggregation and the absorbance of platelet-free Tyrode's solution as 100% aggregation. The antiplatelet effects were shown in Table 1 and the inhibitory concentrations for 50% aggregation (IC50) were expressed in Table 2.

[2] = system: platelet aggregation induced by arachidonic acid (AA) in washed rabbit platelets; assay: Inhibition of arachidonic acid-induced aggregation of washed rabbit platelets (turbidimetry, Lumi-aggregometer); conditions: Oryctolagus cuniculus; for activity at 100 µg/mL: 0.05 h, AA 100 μM, compound 100 μg/ml, preincubated at 37° for 3 min, mean ± SEM (n); for IC50: AA 100 μg/ml
Protocol: as §1
4. AA (arachidonic acid), purchased from Sigma, was dissolved in deionized water.
as §2, §3

[3] = system: platelet aggregation induced by platelet-activating factor (PAF) in washed rabbit platelets; assay: Inhibition of PAF-induced aggregation of washed rabbit platelets (turbidimetry, Lumi-aggregometer); conditions: Oryctolagus cuniculus, PAF 2 nM
Protocol: as §1
3. PAF (1-O-alkyl-2-acetyl-sn-glycerol-3-phosphorylcholine), purchased from Sigma, was dissolved in chloroform and diluted into 0.1% BSA-saline solution immediately prior to use.
as §2, §3

[4] = system: platelet aggregation induced by thrombin (Thr) in washed rabbit platelets; assay: Inhibition of thrombin-induced aggregation of washed rabbit platelets (turbidimetry, Lumi-aggregometer); conditions: Oryctolagus cuniculus, Thr 0.1 U/ml; for activity at 100 µg/mL: 0.05 h, compound 100 μg/ml, preincubated at 37° for 3 min, mean ± SEM (n)
Protocol: as §1
1. Bovine thrombin, from the Parke Davis Co., was dissolved in 50% (v/v) glycerol for a stock solution of 100 NIH units/mL.
as §2, §3

`C=C1CC(C)(COc2ccc3ccc(=O)oc3c2)OC1=O` (stereo not shown) [Compound 3, 7-[(2,3,4,5-Tetrahydro-2-methyl-4-methylene-5-oxo-2-furanyl)methoxy]-2H-1-benzopyran-2-one] gave an activity at 100 µg/mL [1] of 0%, an activity at 100 µg/mL [2] of 0% and an IC50 [2] of 26.1 µg/mL (≈ 91.1 µM). For the same molecule, the IC50 [3] was over 50 µg/mL, the activity at 100 µg/mL [4] was 22.8 ± 6.6% and the IC50 [4] was over 50 µg/mL.
Work on `C=C1CC(C)(COc2cccc3ccc(=O)[nH]c23)OC1=O` (stereo not shown) [Compound 5, 8-[(2,3,4,5-Tetrahydro-2-methyl-4-methylene-5-oxo-2-furanyl)methoxy]-2(1H)-quinolinone] yielded an activity at 100 µg/mL [1] of 0%, an activity at 100 µg/mL [2] of 0% and an IC50 [2] of 10.5 µg/mL (≈ 36.9 µM). For the same molecule, the activity at 100 µg/mL [4] was 25.9 ± 0.7%.
`C=C1CC(C)(COc2cccc3cccnc23)OC1=O` (stereo not shown) [Compound 7, 8-[(2,3,4,5-Tetrahydro-2-methyl-4-methylene-5-oxo-2-furanyl)methoxy]quinoline] was tested, and the activity at 100 µg/mL [1] was 0%, the IC50 [1] was 27.2 µg/mL (≈ 101 µM) and the activity at 100 µg/mL [2] was 0%. The IC50 [3] was 47.9 µg/mL (≈ 178 µM), the activity at 100 µg/mL [4] was 17.4 ± 7.9% and the IC50 [4] was over 50 µg/mL.
For `C=C1CC(COc2ccc3ccc(=O)oc3c2)(c2ccccc2)OC1=O` (stereo not shown) [Compound 4, 7-[(2,3,4,5-Tetrahydro-4-methylene-5-oxo-2-Phenyl-2-furanyl)methoxy]-2H-1-benzopyran-2-one], the activity at 100 µg/mL [1] was 0%, the activity at 100 µg/mL [2] was 0% and the IC50 [2] was 1.27 µg/mL (≈ 3.65 µM). It also gave an IC50 [3] of 5.7 µg/mL (≈ 16.4 µM) and an activity at 100 µg/mL [4] of 0%.
Work on `C=C1CC(COc2cccc3ccc(C)nc23)(c2ccc(Cl)cc2)OC1=O` (stereo not shown) [Compound 12, 8-[(2-(p-Chlorophenyl)-2,3,4,5-tetrahydro-4-methylene-5-oxo-2-furanyl)methoxy]-2-methylquinoline] yielded an activity at 100 µg/mL [1] of 0%, an activity at 100 µg/mL [2] of 0% and an IC50 [3] of 10.8 µg/mL (≈ 28.5 µM). The activity at 100 µg/mL [4] was 0%.
Work on `C=C1CC(C)(COc2cc(=O)oc3ccccc23)OC1=O` (stereo not shown) [Compound 1, 4-[(2,3,4,5-Tetrahydro-2-methyl-4-methylene-5-oxo-2-furanyl)methoxy]-2H-1-benzopyran-2-one] yielded an activity at 100 µg/mL [1] of 8.5 ± 6.9%, an IC50 [1] of over 50 µg/mL and an activity at 100 µg/mL [2] of 23.3 ± 12.6%. For the same molecule, the IC50 [2] was over 50 µg/mL, the IC50 [3] was over 50 µg/mL and the activity at 100 µg/mL [4] was 74.4 ± 9.6%. The IC50 [4] was over 50 µg/mL.
With `C=C1CC(COc2cccc3ccc(C)nc23)(c2ccccc2)OC1=O` (stereo not shown) [Compound 11, 8-[(2,3,4,5-Tetrahydro-4-methylene-5-oxo-2-phenyl-2-furanyl)methoxy]-2-methylquinoline] the activity at 100 µg/mL [1] was 0%, the IC50 [1] was 5.76 µg/mL (≈ 16.7 µM) and the activity at 100 µg/mL [2] was 0%. The IC50 [3] was 10.5 µg/mL (≈ 30.5 µM), the activity at 100 µg/mL [4] was 0% and the IC50 [4] was 14.9 µg/mL (≈ 43.1 µM).
`C=C1CC(C)(COc2cccc3ccc(C)nc23)OC1=O` (stereo not shown) [Compound 10, 8-[(2,3,4,5-Tetrahydro-2-methyl-4-methylene-5-oxo-2-furanyl)methoxy]-2-methylquinoline] was tested, and the activity at 100 µg/mL [1] was 0%, the IC50 [1] was 16.2 µg/mL (≈ 57.3 µM) and the activity at 100 µg/mL [2] was 0%. The IC50 [3] was 39.6 µg/mL (≈ 140 µM), the activity at 100 µg/mL [4] was 0% and the IC50 [4] was over 50 µg/mL.
Work on `C=C1CC(COc2cccc3cccnc23)(c2ccc(Cl)cc2)OC1=O` (stereo not shown) [Compound 9, 8-[(2-(p-Chlorophenyl)-2,3,4,5-tetrahydro-4-methylene-5-oxo-2-furanyl)methoxy]quinoline] yielded an activity at 100 µg/mL [1] of 0%, an IC50 [1] of 5.17 µg/mL (≈ 14.1 µM) and an activity at 100 µg/mL [2] of 0%. The IC50 [3] was 12.4 µg/mL (≈ 33.8 µM), the activity at 100 µg/mL [4] was 0% and the IC50 [4] was 13.7 µg/mL (≈ 37.4 µM).
Molecule `C=C1CC(COc2cc(=O)oc3ccccc23)(c2ccccc2)OC1=O` (stereo not shown) [Compound 2, 4-[(2,3,4,5-Tetrahydro-4-methylene-5-oxo-2-phenyl-2-furanyl)methoxy]-2H-1-benzopyran-2-one] has an activity at 100 µg/mL [1] of 0%, an activity at 100 µg/mL [2] of 0% and an IC50 [2] of 2.86 µg/mL (≈ 8.21 µM). It also gave an IC50 [3] of 36 µg/mL (≈ 103 µM) and an activity at 100 µg/mL [4] of 0%.
Molecule `C=C1CC(COc2cccc3ccc(=O)[nH]c23)(c2ccccc2)OC1=O` (stereo not shown) [Compound 6, 8-[(2,3,4,5-Tetrahydro-4-methylene-5-oxo-2-phenyl-2-furanyl)methoxy]-2(1H)-quinolinone] has an activity at 100 µg/mL [1] of 0%, an activity at 100 µg/mL [2] of 0% and an IC50 [2] of 8.3 µg/mL (≈ 23.9 µM). The IC50 [3] was over 50 µg/mL, the activity at 100 µg/mL [4] was 54.3 ± 1.3% and the IC50 [4] was over 50 µg/mL.
`C=C1CC(COc2cccc3cccnc23)(c2ccccc2)OC1=O` (stereo not shown) [Compound 8, 8-[(2,3,4,5-Tetrahydro-4-methylene-5-oxo-2-phenyl-2-furanyl)methoxy]quinoline] showed an activity at 100 µg/mL [1] of 0%, an IC50 [1] of 4.76 µg/mL (≈ 14.4 µM) and an activity at 100 µg/mL [2] of 0%. The IC50 [3] was 11.1 µg/mL (≈ 33.6 µM), the activity at 100 µg/mL [4] was 0% and the IC50 [4] was 15.8 µg/mL (≈ 47.6 µM).
